From patent EP1591123A1, “USES OF NARINGENIN, NARINGIN AND SALTS THEREOF AS EXPECTORANTS IN THE TREATMENT OF COUGH, AND COMPOSITIONS THEREOF” (Su, Wei-wei, priority 2003, dated 2004)
Structures can show the parent of a compound that is named as a salt.

Assays:
mice = experiment: Antitussive test of Naringenin, spray by high concentration ammonia (Example 30); assay type: in vivo; details: sample concentration 1.5 mg/ml
From the text: 1. Animal: 120 healthy male mice weighing 19.5-22.1g was grouped into 8 groups random after labeled, which was selected from 130 male mice weighing 19.3-22.6g. Every group was 15 mice. Eight group were set including negative control group, positive control group, high dose group of Naringenin, middle dose group of Naringenin, low dose group of Naringenin, high dose group of sodium salt of Naringenin, middle dose group of sodium salt of Naringenin, low dose group of sodium salt of Naringenin.
• 1) Blank control group: physiological saline, 0.9% NaCl; • 2) Positive control group: 30mg Dextromethorphan Hydrobromide was dissolve into 20 ml physiological saline and the sample concentration was 1.5 mg/ml to obtain the solution for positive control. • 3) low dose group of Naringenin: weighting out the appropriate amount of Naringenin and dissolving it in physiological saline, then the sample concentration was 0.5 mg/ml. • 4) middle dose group of Naringenin: weighting out the appropriate amount of Naringenin and dissolving it in physiological saline, then the sample concentration was 1.5mg/ml. • 5) high dose group of Naringenin: weighting out the appropriate amount of Naringenin and dissolving it in physiological saline, then the sample concentration was 4.5 mg/ml. • 6) low dose group of sodium salt of Naringenin: weighting out the appropriate amount of sodium salt of Naringenin and dissolving it in physiological saline, then the sample concentration was 0.5 mg/ml. • 7) middle dose group of sodium salt of Naringenin: weighting out the appropriate amount of sodium salt of Naringenin and dissolving it in physiological saline, then the sample concentration was 1.5 mg/ml. • 8) high dose group of sodium salt of Naringenin: weighting out the appropriate amount of sodium salt of Naringenin and dissolving it in physiological saline, then the sample concentration was 4.5 mg/ml.
Animals were oral administered, and were sprayed one hour later. After the spray took out the animals and observed the tussive action. Observed the time of tussis in one minutes, if it appeared typical tussis three times in one minutes(shrinking the abdomen muscle or shrinking chest, puffing mouth at the same time, sometimes appearing tussive sound), we consider it "appearing tussis", otherwise "no tussis".
We calculated the spraying time that half of mice were tusisive by sequential method. And calculated the R, the drug was provided with effect of relieve a cough if R>130%. The drug was provided with remarkable effect of relieve a cough if R>150%. Underside is expressions: R=(EDT50 of the treatment)/(EDT50 of the control)× 100% [formula] EDT50=log^-1c/n ('n' is the number of animal, 'c' is the sum of 'rx' value, 'r' is the number of animal in every group, 'x' is the logarithm of dose(namely spray time).)

NIH mice = experiment: Antitussive test of Naringin, spraying with concentrated ammonia liquor (Example 28); assay type: in vivo; details: 0.2 ml/20g of 1.5 mg/ml
From the text: 1.Animals: As the stock animals, totally 130 NIH mice, male, each weighed 18.2~21.7g within ordinary standard. Weigh and number each mice accurately first, then pick out the 120 healthy ones who weighed in range from 18.5~21.0g. Ranked in weigh, they were divided into 8 groups in random with each 15. Set up reference groups of negative and positive, and sample groups of high-dose, mid-dose, low-dose Naringin and sodium Naringinate.
• 1) Blank control group: physiological saline, 0.9% NaCl; • 2) Positive control group: 30 mg dextromethorphan hydrobromide was weighed into a 20ml volumetric flask, and physiological saline was accurately added to the volume to obtain the solution for positive control at concentration of 5mg/ml° • 3) Group of low-dose sample Naringin: Proper amount of Naringin was weighed into a suitable volumetric flask, and physiological saline was added to the volume to obtain the solution at concentration of 0.5mg/ml. • 4) Group of mid-dose sample Naringin: Proper amount of Naringin was weighed into a suitable volumetric flask, and physiological saline was added to the volume to obtain the solution at concentration of 1.5mg/ml. • 5) Group of high-dose sample Naringin: Proper amount of Naringin was weighed into a suitable volumetric flask, and physiological saline was added to the volume to obtain the solution at concentration of 4.5mg/ml. • 6) Group of low-dose sample sodium Naringinate: Proper amount of sodium Naringin was weighed into a suitable volumetric flask, and physiological saline was added to the volume to obtain the solution at concentration of 0.5mg/ml. • 7) Group of mid-dose sample sodium Naringinate: Proper amount of sodium Naringin was weighed into a suitable volumetric flask, and physiological saline was added to the volume to obtain the solution at concentration of 1.5mg/ml. • 8) Group of high-dose sample sodium Naringinate: Proper amount of sodium Naringin was weighed into a suitable volumetric flask, and physiological saline was added to the volume to obtain the solution at concentration of4.5mg/ml.
One hour after intra-gastrointestinal administering for the mice, spray with concentrated ammonia liquor for certain intervals. Immediately the spraying was over, put away the mice outside and observe the tussive action. Mark down the times for which they coughed within 1 minute. Only when they coughed, which was characteristic of compression of abdomen or chest with their mouths open, and making coughing noise, for more than 3 times within a minute, tussive action could be admitted.
Calculate the median effective dose(EDT50) with sequential trials. Work out the amount of R with the formula below. If R is greater than 130%, it means the drug will be effective on antitussive action. If R is greater than 150%, it means the drug will be remarkably effective on antitussive action. The formula is shown as below: R =(EDT50 of the treatmnet)/(EDT50 of the control)× 100% [formula] EDT50=log-1c/n(n for amount of animals, c for summation of rx, r for amount of animals in each group, x for logarithm of the dose (time for spraying) )

[1] = EDT50 of the treatment / EDT50 of the control x 100%

In the case of `COc1ccc2c(c1)[C@]13CCCC[C@@H]1[C@H](C2)N(C)CC3` [Dextromethorphan Hydrobromide, reference compound], the “R Value” (mice; [1]) is reported as 138.05%, the EDT50 (mice; mice, oral, dose 0.2 (mg/20g), spray one hour later) is reported as 53.70 s and the “Effect of relieving cough” value (mice) is reported as “effect (the drug was provided with effect of relieve a cough if R>130%)”. For the same compound, the “Effect of relieving cough” value (NIH mice) was “effective (If R is greater than 130%, it means the drug will be effective on antitussive action)”, the “R Value” (NIH mice; [1]) was 140.23% and the EDT50 (NIH mice; mice, intra-gastrointestinal, ammonia spray 1 hour after dosing) was 56.82 s.
